Experimental data published in the supplement of paper PMC10307832.

Experiments:
Test in all cases: relative viability (nuclei count vs DMSO), 5 days (fraction); higher = more cells survive
[1] = compound: CC1(C)CNc2cc(NC(=O)c3cccnc3NCc3ccncc3)ccc21 [Motesanib] + Cc1nc(NC(=O)N2CCC[C@H]2C(N)=O)sc1-c1ccnc(C(C)(C)C(F)(F)F)c1 [Alpelisib] (partner 2 µM)
Summary of the method: (§1)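 The day after seeding in 1536-well plates, lung cancer cell lines were treated by pin tool with a single drug, or with a fixed anchor-drug dose together with five library-drug doses (not always all listed) in √10 steps. After 5 days, a combined fix-and-stain solution (final 0.05% Triton X-100, 1% formaldehyde, 1 ug/ml Hoechst) was added. Nuclei counted on 4× images gave relative viability as treated counts over vehicle counts, reported as the median of duplicate plates.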

[2] = compound: C[C@@]1(C(=O)Nc2ccc(F)nc2)CCCN1c1nc(Nc2cc(C3CC3)n[nH]2)c2cccn2n1 + Nc1nc2[nH]cc(CCc3ccc(C(=O)N[C@@H](CCC(=O)O)C(=O)O)cc3)c2c(=O)[nH]1 [Pemetrexed] (partner 0.2 µM)
Summary of the method: as §1

[3] = compound: CC1(C)CNc2cc(NC(=O)c3cccnc3NCc3ccncc3)ccc21 [Motesanib] + CC(=O)c1c(C)c2cnc(Nc3ccc(N4CCNCC4)cn3)nc2n(C2CCCC2)c1=O [Palbociclib] (partner 0.5 µM)
Summary of the method: as §1

[4] = compound: C[C@@]1(C(=O)Nc2ccc(F)nc2)CCCN1c1nc(Nc2cc(C3CC3)n[nH]2)c2cccn2n1 + CS(=O)(=O)N1CCN(Cc2cc3nc(-c4cccc5[nH]ncc45)nc(N4CCOCC4)c3s2)CC1 [Pictilisib] (partner 1 µM)
Summary of the method: as §1

Cell Line	relative viability ([1]; first compound 0.01 µM)	relative viability ([1]; first compound 0.03162 µM)	relative viability ([1]; first compound 0.1 µM)	relative viability ([1]; first compound 0.3162 µM)	relative viability ([1]; first compound 1 µM)	relative viability ([2]; first compound 0.04 µM)	relative viability ([2]; first compound 0.1265 µM)	relative viability ([2]; first compound 0.4 µM)	relative viability ([2]; first compound 1.265 µM)	relative viability ([3]; first compound 0.01 µM)	relative viability ([3]; first compound 0.03162 µM)	relative viability ([3]; first compound 0.1 µM)	relative viability ([3]; first compound 0.3162 µM)	relative viability ([3]; first compound 1 µM)	relative viability ([4]; first compound 0.04 µM)	relative viability ([4]; first compound 0.1265 µM)	relative viability ([4]; first compound 0.4 µM)	relative viability ([4]; first compound 1.265 µM)
SW 1573	0.825	0.759	0.75	0.67	0.821	0.847	0.749	0.803	0.244	0.321	0.385	0.498	0.38	0.444	0.438	0.251	0.377	0.455
NCI-H2347	1.02	1	1.14	1.09	1.18	0.437	0.415	0.436	0.416	0.452	0.428	0.404	0.469	0.437	0.595	0.6	0.516	0.776
NCI-H2009	1.15	1.18	1.17	1.19	1.15	1.07	1.01	1.01	1.03	0.273	0.246	0.276	0.246	0.264	0.824	0.765	0.653	0.717
HCC-15	0.97	0.885	0.969	0.972	0.931	0.216	0.225	0.209	0.211	0.777	0.668	0.695	0.768	0.702	0.715	0.573	0.747	0.745
HCC-44	0.771	0.774	0.862	0.785	0.827	0.688	0.6	0.627	0.618	0.945	0.944	1.02	0.972	0.942	0.532	0.386	0.841	0.328
COR-L23	0.719	0.783	0.802	0.736	0.781	0.203	0.198	0.173	0.183	0.297	0.26	0.272	0.273	0.32	0.518	0.463	0.31	0.335
HCC-78	0.337	0.304	0.35	0.356	0.333	0.898	0.898	0.913	0.922	0.442	0.467	0.478	0.511	0.56	0.204	0.148	0.172	0.189
NCI-H2087	1.01	1.08	1.07	1.16	1.03	0.669	0.696	0.639	0.668			0.26	0.232	0.26	0.896	0.783	0.792	0.7
BEN	1.07	1.08	0.897	0.972	1.18	0.919	0.65	0.616	0.653	0.458	0.457	0.478	0.481	0.476	0.614	0.573	0.606	0.614
LCLC-103H		0.947	1.06	0.931	0.987	0.49	0.509	0.44	0.41	0.505	0.469	0.525	0.555	0.513	0.501	0.497	0.366	0.441
EKVX	0.778	0.883	0.875	0.922	0.895	0.415	0.307	0.349	0.356	0.415	0.347	0.378	0.36	0.398	0.354	0.328	0.33	0.409
LXF-289	0.983	1.05	1.06	1.05	1.04	0.9	0.921	0.804	0.859	0.659	0.6	0.563	0.656	0.585	0.739	0.657	0.567	0.628
NCI-H650	0.925	0.85	1.14	1.09	1.08	0.837	0.706	0.745	0.692	0.32	0.3	0.356	0.319	0.341	0.916	0.651	0.689	0.722
NCI-H2085	0.939	1.01	1.02	0.943	1.05	0.959	0.844	0.887	0.877	0.512	0.488	0.471	0.465	0.474	0.487	0.46	0.469	0.495
NCI-H1793	0.795	0.673	0.75	0.761	0.676	0.644	0.825	0.634	0.508	0.351	0.306	0.335	0.277	0.334	0.338	0.284	0.323	0.293
LC-2-ad	0.801	0.919	0.923	1.03	0.813	0.28	0.242	0.263	0.211	0.487	0.514	0.556	0.49	0.5	0.248	0.271	0.272	0.206
COR-L 105	0.872	1.16	0.992	0.79	1.26	1.07	0.658	0.865	1.1	0.393	0.45	0.401	0.438	0.448	0.414	0.328	0.26	0.241
NCI-H1355	0.825	0.831	0.937	0.933	0.828	1.01	0.957	0.826	0.953	0.429	0.413	0.397	0.392	0.38	0.428	0.462	0.332	0.439
